Results from patent publication US20230391768A2, “IMIDAZOPYRIDINE DERIVATIVES AND AZA-IMIDAZOPYRIDINE DERIVATIVES AS JANUS KINASE 2 INHIBITORS AND USES THEREOF” (Dana-Farber Cancer Institute, Inc., priority 2018, published 2023).

Assays:
Experiment in all cases: KINOMEscan
Assay type in all cases: binding
Conditions in all cases: read-out: percent of control
IKK-epsilon = IKK-epsilon (Homo sapiens (Human), UniProt Q14164)
Experimental: (§1) In vitro profiling of Compound I-2 (1 μM) was performed using the DiscoveRx KINOMEscan® platform.

TGFBR1 = TGFBR1 (Homo sapiens (Human), UniProt P36897)
Experimental: as §1

PIP5K1C = PIP5K1C (Homo sapiens (Human), UniProt O60331)
Experimental: as §1

RIPK2 = RIPK2 (Homo sapiens (Human), UniProt O43353)
Experimental: as §1

CDK4-cyclinD1 = CDK4-cyclinD1 (Homo sapiens (Human), UniProt P11802)
Experimental: as §1

CDKL3 = CDKL3 (Homo sapiens (Human), UniProt Q8IVW4)
Experimental: as §1

Sequence of CDKL3 (Q8IVW4 whole entry): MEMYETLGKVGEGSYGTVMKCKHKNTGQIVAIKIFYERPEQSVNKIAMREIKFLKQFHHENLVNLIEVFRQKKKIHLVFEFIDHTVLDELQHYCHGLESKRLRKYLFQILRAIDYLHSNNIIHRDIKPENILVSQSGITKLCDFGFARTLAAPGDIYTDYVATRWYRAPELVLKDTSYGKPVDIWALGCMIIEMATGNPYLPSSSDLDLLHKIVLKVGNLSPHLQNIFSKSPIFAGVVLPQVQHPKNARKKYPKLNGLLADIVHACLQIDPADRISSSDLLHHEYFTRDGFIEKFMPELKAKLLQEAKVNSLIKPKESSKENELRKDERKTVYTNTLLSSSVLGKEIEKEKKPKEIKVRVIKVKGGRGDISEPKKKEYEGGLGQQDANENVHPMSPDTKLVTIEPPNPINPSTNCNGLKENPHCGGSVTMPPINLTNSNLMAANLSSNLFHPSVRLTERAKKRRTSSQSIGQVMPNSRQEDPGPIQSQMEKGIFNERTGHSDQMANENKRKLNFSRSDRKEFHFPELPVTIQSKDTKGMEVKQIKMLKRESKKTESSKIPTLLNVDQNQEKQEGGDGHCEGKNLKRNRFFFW
Sequence of RIPK2 (O43353 whole entry): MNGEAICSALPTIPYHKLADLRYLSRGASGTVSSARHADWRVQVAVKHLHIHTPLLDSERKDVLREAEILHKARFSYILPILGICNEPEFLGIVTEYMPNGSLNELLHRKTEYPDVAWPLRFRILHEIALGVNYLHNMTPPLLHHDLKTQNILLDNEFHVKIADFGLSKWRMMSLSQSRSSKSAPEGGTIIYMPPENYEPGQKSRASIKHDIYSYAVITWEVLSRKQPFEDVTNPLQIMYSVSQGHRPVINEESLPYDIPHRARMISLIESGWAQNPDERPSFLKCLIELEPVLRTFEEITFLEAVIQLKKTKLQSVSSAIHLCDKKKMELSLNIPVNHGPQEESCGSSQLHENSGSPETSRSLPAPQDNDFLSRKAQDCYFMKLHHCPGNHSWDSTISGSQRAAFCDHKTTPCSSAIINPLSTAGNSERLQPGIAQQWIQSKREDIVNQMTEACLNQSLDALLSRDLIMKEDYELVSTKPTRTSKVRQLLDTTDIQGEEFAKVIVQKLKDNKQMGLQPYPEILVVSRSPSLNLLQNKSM
Sequence of IKK-epsilon (Q14164 whole entry): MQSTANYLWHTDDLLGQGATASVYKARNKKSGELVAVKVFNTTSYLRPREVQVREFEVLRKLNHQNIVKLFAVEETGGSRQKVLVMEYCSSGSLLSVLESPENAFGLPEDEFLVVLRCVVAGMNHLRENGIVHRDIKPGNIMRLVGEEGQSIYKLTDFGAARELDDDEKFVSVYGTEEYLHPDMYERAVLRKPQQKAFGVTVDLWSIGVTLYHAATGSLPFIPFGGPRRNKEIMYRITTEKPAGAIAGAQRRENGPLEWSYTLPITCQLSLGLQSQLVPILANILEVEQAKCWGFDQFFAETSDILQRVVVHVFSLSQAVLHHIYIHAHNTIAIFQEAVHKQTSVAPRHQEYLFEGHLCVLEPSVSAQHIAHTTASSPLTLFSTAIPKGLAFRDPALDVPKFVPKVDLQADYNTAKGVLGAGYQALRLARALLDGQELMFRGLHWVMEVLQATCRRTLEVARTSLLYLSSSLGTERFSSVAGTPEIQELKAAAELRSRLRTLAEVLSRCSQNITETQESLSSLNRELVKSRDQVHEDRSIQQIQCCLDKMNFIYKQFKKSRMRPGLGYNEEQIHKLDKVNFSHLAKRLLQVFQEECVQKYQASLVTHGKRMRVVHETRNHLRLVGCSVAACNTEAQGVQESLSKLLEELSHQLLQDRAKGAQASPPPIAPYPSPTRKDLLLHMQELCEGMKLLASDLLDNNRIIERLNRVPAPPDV
Sequence of TGFBR1 (P36897 34-503): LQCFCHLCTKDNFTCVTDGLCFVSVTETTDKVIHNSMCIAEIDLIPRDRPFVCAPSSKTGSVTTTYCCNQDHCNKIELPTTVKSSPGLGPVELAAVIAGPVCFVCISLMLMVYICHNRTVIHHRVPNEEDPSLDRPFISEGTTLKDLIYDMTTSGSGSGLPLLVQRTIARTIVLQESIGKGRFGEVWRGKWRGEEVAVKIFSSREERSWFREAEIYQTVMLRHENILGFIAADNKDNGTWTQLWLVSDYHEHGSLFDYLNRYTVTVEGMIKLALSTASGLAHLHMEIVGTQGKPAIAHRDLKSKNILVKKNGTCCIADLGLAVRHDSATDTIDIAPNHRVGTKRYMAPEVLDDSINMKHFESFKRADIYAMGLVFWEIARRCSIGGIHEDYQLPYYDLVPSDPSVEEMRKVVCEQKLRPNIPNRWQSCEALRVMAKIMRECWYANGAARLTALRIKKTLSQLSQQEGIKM
Sequence of CDK4-cyclinD1 (P11802 whole entry): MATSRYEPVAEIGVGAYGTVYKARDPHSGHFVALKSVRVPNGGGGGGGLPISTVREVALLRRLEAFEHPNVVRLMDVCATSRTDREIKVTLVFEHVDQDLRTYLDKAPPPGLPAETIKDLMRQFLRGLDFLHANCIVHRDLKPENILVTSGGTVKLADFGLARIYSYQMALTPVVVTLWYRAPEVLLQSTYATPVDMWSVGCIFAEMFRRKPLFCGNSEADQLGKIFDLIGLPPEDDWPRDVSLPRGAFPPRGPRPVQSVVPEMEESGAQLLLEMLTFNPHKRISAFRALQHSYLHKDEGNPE
Sequence of CDK4-cyclinD1 (P24385 whole entry partner): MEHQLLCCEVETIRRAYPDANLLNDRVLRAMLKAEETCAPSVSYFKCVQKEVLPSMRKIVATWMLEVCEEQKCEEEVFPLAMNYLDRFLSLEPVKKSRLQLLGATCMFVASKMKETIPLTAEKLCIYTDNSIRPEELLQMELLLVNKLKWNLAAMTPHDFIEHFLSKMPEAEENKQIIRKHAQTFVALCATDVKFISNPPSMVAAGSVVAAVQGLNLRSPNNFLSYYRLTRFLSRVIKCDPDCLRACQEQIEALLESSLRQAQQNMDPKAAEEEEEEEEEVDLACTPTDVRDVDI
Sequence of PIP5K1C (O60331 whole entry): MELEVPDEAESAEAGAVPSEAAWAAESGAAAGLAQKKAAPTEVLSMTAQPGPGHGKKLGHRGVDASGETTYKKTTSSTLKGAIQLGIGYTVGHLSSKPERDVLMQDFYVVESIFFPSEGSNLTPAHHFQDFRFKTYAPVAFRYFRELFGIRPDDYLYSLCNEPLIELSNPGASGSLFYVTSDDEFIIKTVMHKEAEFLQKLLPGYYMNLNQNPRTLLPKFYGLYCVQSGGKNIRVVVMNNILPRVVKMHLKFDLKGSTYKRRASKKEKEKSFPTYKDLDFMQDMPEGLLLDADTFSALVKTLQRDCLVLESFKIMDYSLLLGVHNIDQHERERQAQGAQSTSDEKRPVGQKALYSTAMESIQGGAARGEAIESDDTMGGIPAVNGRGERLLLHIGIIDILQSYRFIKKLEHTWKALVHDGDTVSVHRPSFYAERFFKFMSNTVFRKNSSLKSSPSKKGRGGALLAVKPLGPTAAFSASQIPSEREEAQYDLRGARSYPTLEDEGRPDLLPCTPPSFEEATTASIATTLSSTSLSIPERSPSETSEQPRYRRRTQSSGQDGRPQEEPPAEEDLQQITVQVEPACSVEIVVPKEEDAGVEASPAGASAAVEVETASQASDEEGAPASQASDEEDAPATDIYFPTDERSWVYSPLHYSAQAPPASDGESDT

Compound | remaining binding at 1 µM (IKK-epsilon) | remaining binding at 1 µM (TGFBR1) | remaining binding at 1 µM (PIP5K1C) | remaining binding at 1 µM (RIPK2) | remaining binding at 1 µM (CDK4-cyclinD1) | remaining binding at 1 µM (CDKL3)
CCN1CCN(Cc2cc(NC(=O)c3ccc(C)c(-c4ccc5nc(NC(=O)C6CC6)cn5n4)c3)cc(C(F)(F)F)c2)CC1 [Compound I-2, 3-(2-(cyclopropanecarboxamido)imidazo[1,2-b]pyridazin-6-yl)-N-(3-((4-ethylpiperazin-1-yl)methyl)-5-(trifluoromethyl)phenyl)-4-methylbenzamide] | 80% | 94% | 85% | 89% | 19% | 0.4%
CCN1CCN(Cc2cc(NC(=O)c3ccc(C)c(-c4ccc5nc(NC(=O)C6CC6)cn5c4)c3)cc(C(F)(F)F)c2)CC1 [Compound I-6, 3-(2-(cyclopropanecarboxamido)imidazo[1,2-a]pyridin-6-yl)-N-(3-((4-ethylpiperazin-1-yl)methyl)-5-(trifluoromethyl)phenyl)-4-methylbenzamide] | 87% | 100% | 94% | 35% | 17% | 0%
